# Reference: patent publication US20200079812A1, “UV-B ABSORBING COMPOUNDS ISOLATED FROM PLANTS” (MAX-PLANCK-GESELLSCHAFT ZUR FÖRDERUNG DER WISSENSCHAFTEN …, priority 2015, published 2020)
# Several values for one entry are separate records, joined by “and”; a condition that tells them apart may be missing. Identical values can stand only once.
# Test: UV-B absorption profile (UV-VIS spectra, HPLC-PDA profiling)
# Format: physicochemical
# Method: Column chromatography was carried out over ODS (Nacalai Tesque, Cosmosil 75C18-OPN). HPLC analysis was carried out on an Atlantis® (ϕ4.6×150 mm, Waters) at a flow rate of 0.5 ml min^1. Preparative HPLC was performed on a LC 10A system (Shimadzu) using an Inertsil® ODS-EP 5 m ($6.0×150 mm) at 30° C. and monitoring was accomplished by PDA (200-600 nm). HPLC-PDA-ESI-MS (HPLC/photodiode array detection/electrospray ionization mass spectrometry) was performed on a Finnigan LCQ-DECA mass spectrometer (ThermoQuest, San Jose, Calif., USA) and an Agilent HPLC 1100 series (Agilent Technologies, Palo Alto, Calif., USA). HR-ESI-MS was performed on an Exactive™ mass spectrometer (ThermoQuest, San Jose, Calif., USA). Optical rotations were determined on a JASCO P-1020. UV spectra were recorded on a JASCO V-560. NMR data were recorded on JEOL JNM ECP-600. The deuterated solvent CD3OD was used for peak 4. Coupling constants are expressed in Hz.
# UV-VIS spectra in the range between 260 nm and 450 nm were recorded and analyzed via HPLC-PDA profiling for kaempferol-3-Glc-2″-Rha-7Rha (FIG. 3A), saiginol A (kaempferol-3-Glc-2″-Rha-6″-sinapoyl-7Rha, FIG. 3B) and sinapoyl-glucose (FIG. 3C). HPLC-PDA (HPLC/photodiode array detection) was performed on Dionex Ultimate 3000 system (San Jose, Calif., USA). […]
Compound,"UV-B absorption (efficiency / UV-B absorbent properties) (UV-VIS spectra 260-450 nm, HPLC-PDA profiling, FIG. 3)","Amax (UV-VIS absorption maximum) (UV-VIS spectrum, UV (MeOH))"
"CC1OC(Oc2cc(O)c3c(=O)c(OC4OC(CO)C(O)C(O)C4OC4OC(C)C(O)C(O)C4O)c(-c4ccc(O)cc4)oc3c2)C(O)C(O)C1O (centres unmarked) [kaempferol-3-Glc-2″-Rha-7Rha, kaempferol-3-O-Glc-2″-O-Rha-7-O-Rha, reference compound]",much less efficient,
"COc1cc(/C=C/C(=O)OC[C@H]2O[C@@H](Oc3c(-c4ccc(O)cc4)oc4cc(O[C@@H]5O[C@@H](C)[C@H](O)[C@@H](O)[C@H]5O)cc(O)c4c3=O)[C@H](O[C@@H]3O[C@@H](C)[C@H](O)[C@@H](O)[C@H]3O)[C@@H](O)[C@@H]2O)cc(OC)c1O [Saiginol A, Kaempferol-3-O-[2-O-(α-L-rhamnopyranosyl)-6-O-(sinapoyl)-β-D-glucopyranoside]-7-O-α-L-rhamnopyranoside]",,201.5 nm and 223.0 nm and 266.5 nm and 331.5 nm
